Data reported in US11452731B2, “Method of treating and preventing loss of cognition” (ENDORECHERCHE, INC., priority 2009, dated 2022).
Like-named read-outs stand apart in the source and are kept apart here.

Tests used:
[1] = Uterine and vaginal weight in ovariectomized BALB/c mice treated orally for 9 days with or without estrone (Example 3); type: in vivo; settings: for inhibition of estrone-stimulated uterine weight / inhibition of vaginal weight (estrone-stimulated): OVX mice + estrone, oral 9 days
Method: Female BALB/c mice (BALB/cAnNCrlBR) weighing 18-20 g were obtained from Charles-River, Inc. (St-Constant, Quebec, Canada) and housed 5 per cage in a temperature (23±1° C.)- and light (12 h light/day, lights on at 7:15)-controlled environment. The mice were fed rodent chow and tap water ad libitum. The animals were ovariectomized (OVX) under Isoflurane anesthesia via bilateral flank incisions and randomly assigned to groups of 10 animals. Ten mice were kept intact as controls.
In the second experiment (Table 6), TSE 424 was administered orally by gavage once daily at doses of 1, 3, 10 or 30 μg/animal for 9 days, starting 2 days after ovariectomy. In both experiments, to evaluate the antiestrogenic activity, treatment with estrone (E1, […], s.c. injection, twice daily) was started 5 days post-ovariectomy and was administered for a 6 day-period. Compounds were dissolved in ethanol (4% final concentration) and administered in 0.4% methylcellulose. Mice in the intact and OVX control groups received the vehicle alone (4% ETOH-0.4% methylcellulose) during the 9-day period. The animals were killed by exsanguination at the abdominal aorta on the 11th morning following ovariectomy. The uteri and vagina were rapidly dissected, weighed, and kept in 10% buffered formalin for further histologic examination.

[2] = test system: MCF-7 human breast cancer cells; assay: Proliferation (DNA content) of human breast cancer MCF-7 cells (Example 7); type: cell-based; settings: for IC50: Homo sapiens, read-out: Inhibition of 1 nM E2 stimulation of DNA by tested compounds IC50
Description: MCF-7 human breast cancer cells were obtained from the American Type Culture Collection #HTB 22 at passage 147 and routinely grown in phenol red-free Dulbecco's Modified Eagle's-Ham's F12 medium, the supplements mentioned above and 5% FBS. The MCF-7 human breast adenocarcinoma cell line was derived from the pleural effusion of a patient. MCF-7 cells were used between passages 148 and 165 and subcultured weekly
Thereafter, medium was replaced with fresh medium containing the indicated concentrations of compounds diluted from 1000×stock solutions in 99% redistilled ethanol in the presence or absence of E2. Control cells received only the ethanolic vehicle (0.1% EtOH, v/v). Cells were incubated for the specified time intervals with medium changes at 2- or 3-day intervals. Cell number was determined by measurement of DNA content.
All results are expressed as means±SEM.

[3] = test system: human Ishikawa cells; assay: Alkaline phosphatase activity in human endometrial adenocarcinoma Ishikawa cells (Example 6)
[4] = 26-week treatment of ovariectomized rats: lumbar spine BMD, total body fat, serum cholesterol, ALP (Example 4, experiment 2); type: in vivo, rat; settings: OVX rats, 26 weeks
Method: Ten to twelve week-old female Sprague-Dawley rats (Crl:CD(SD)Br) (Charles River Laboratory, St-Constant, Canada) weighing approximately 220-270 g at start of treatment were used. […] The animals were housed individually and were allowed free access to tap water and a pelleted certified rodent feed (Lab Diet 5002, Ralston Purina, St-Louis, Mo.). Experiments were conducted in an animal facility approved by the Canadian Council on Animal Care (CCAC) and the Association for Assessment and Accreditation of Laboratory Animal Care (AAALAC) in accordance with the CCAC Guide for Care and Use of Experimental Animals. […] Treatments were initiated on day 2 of the study and were performed once daily during 26 weeks. In both experiments, animals not receiving a test article were treated with the appropriate vehicle alone during the same period. […] QDR 4500A, Hologic, Waltham, Mass.) and a Regional High Resolution Scan software. […] Samples were processed for serum preparation and frozen at -80° C. until assay. Serum cholesterol levels and alkaline phospatase activity (ALP) were determined using the Boehringer Mannheim Diagnostic Hitachi 911 Analyzer (Boehringer Mannheim Diagnostic Laboratory Systems).

[5] = 5-week treatment of ovariectomized rats with SERMs alone or with DHEA: BMD of lumbar spine, femur, tibia (Example 5); type: in vivo, rat; settings: OVX rats, 5 weeks
Method: Ten to twelve week-old female Sprague-Dawley rats (Crl:CD(SD)Br) (Charles River Laboratory, St-Constant, Canada) weighing approximately 220-270 g at start of treatment were used. The animals were acclimatized to the environmental conditions (temperature: 22±3° C.; humidity: 50±20%; 12-h light-12-h dark cycles, lights on at 07:15 h) for at least 1 week before starting the experiments. The animals were housed individually and were allowed free access to tap water and a pelleted certified rodent feed (Lab Diet 5002, Ralston Purina, St-Louis, Mo.). Experiments were conducted in an animal facility approved by the Canadian Council on Animal Care (CCAC) and the Association for Assessment and Accreditation of Laboratory Animal Care (AAALAC) in accordance with the CCAC Guide for Care and Use of Experimental Animals.
On day 1 of the study, the animals of the appropriate groups were bilaterally ovariectomized (Ovx) under isoflurane anesthesia. The DHEA was applied topically on the dorsal skin as a solution in 50% ethanol-50% propylene glycol while the tested SERMs were administered as suspension in 0.4% methylcellulose by oral gavage. Treatments were initiated on day 2 of the study and were performed once daily during 5 weeks.
After 5 weeks of treatment, individual rats under Isoflurane anesthesia had their lumbar spine, femur and tibia scanned using dual energy x-ray absorptiometry (DEXA; QDR 4500A, Hologic, Waltham, Mass.) and a Regional High Resolution Scan software. The bone mineral density (BMD) of the lumbar spine (vertebrae L2 to L4), distal femoral metaphysis (DFM) and proximal tibial metaphysis (PTM) were determined.

[6] = OVX mice, absence of estrone, 10 μg daily (no-effect statements: 1 μg and 10 μg)
[7] = Premarin 0.25 mg/kg, SERMs 2.5 mg/kg

Oc1ccc2c(c1)CC[C@H](c1ccccc1)[C@@H]2c1ccc(OCCN2CCCC2)cc1 [Lasofoxifene (free base)]
inhibition of estrone-stimulated uterine weight ([1]; 1 μg daily): no inhibitory effect
inhibition of estrone-stimulated uterine weight ([1]; 3 μg daily): 25%
inhibition of estrone-stimulated uterine weight ([1]; 10 μg daily): 44%
inhibition of vaginal weight (estrone-stimulated) ([1]; 10 μg daily): 37%
stimulation of uterine weight (estrogenic effect) [1, 6]: 93%
stimulation of vaginal weight (estrogenic effect) [1, 6]: 73%
IC50 ([2]; MCF7, MCF-7, Experiment 2): 0.379 nM
Stimulation of DNA by tested compounds % of 1 nM E2 stimulation ([2]; MCF-7, Experiment 2): N.S.
IC50 ([3]; Homo sapiens, Ishikawa, 120 h, read-out: Inhibition of 1 nM E2-induced stimulation of alkaline phosphatase IC50): 4.24 nM
Emax ([3]; Homo sapiens, Ishikawa, 120 h, read-out: Maximal stimulation of alkaline phosphatase % of 1 nM E2 stimulation): 17.9%
Maximal inhibition of 1 nM E2-induced stimulation of alkaline phosphatase ([3]; Ishikawa cells, 5-day incubation, 1 nM E2): 85.14 (1)

Cc1c(-c2ccc(O)cc2)n(Cc2ccc(OCCN3CCCCCC3)cc2)c2ccc(O)cc12 [TSE 424, 1-[[4-[2-(hexahydro-1H-azepin-1-yl)ethoxy]phenyl]methyl]-2-(4-hydroxyphenyl)-3-methyl-1H-indol-5-ol, acetate]
UTERINE WEIGHT ([1]; OVX + E1, 1 μg): 105.5 ± 6.1 mg
VAGINAL WEIGHT ([1]; OVX + E1, 1 μg): 54.2 ± 3.0 mg
UTERINE WEIGHT ([1]; OVX + E1, 3 μg): 69.7 ± 4.4 mg
VAGINAL WEIGHT ([1]; OVX + E1, 3 μg): 47.2 ± 1.6 mg
UTERINE WEIGHT ([1]; OVX + E1, 10 μg): 42.1 ± 2.7 mg
VAGINAL WEIGHT ([1]; OVX + E1, 10 μg): 31.1 ± 2.3 mg
UTERINE WEIGHT ([1]; OVX + E1, 30 μg): 21.7 ± 1.7 mg
VAGINAL WEIGHT ([1]; OVX + E1, 30 μg): 16.7 ± 1.8 mg
inhibition of estrone-stimulated uterine weight ([1]; 1 μg daily): 12%
inhibition of estrone-stimulated uterine weight ([1]; 3 μg daily): 47%
inhibition of vaginal weight (estrone-stimulated) ([1]; 3 μg daily): 16%
inhibition of estrone-stimulated uterine weight ([1]; 10 μg daily): 74%
inhibition of vaginal weight (estrone-stimulated) ([1]; 10 μg daily): 56%
inhibition of estrone-stimulated uterine weight ([1]; 30 μg daily): 94%
inhibition of vaginal weight (estrone-stimulated) ([1]; 30 μg daily): 93%
UTERINE WEIGHT ([1]; OVX without E1, 3 μg): 18.3 ± 1.2 mg
VAGINAL WEIGHT ([1]; OVX without E1, 3 μg): 14.1 ± 1.2 mg
UTERINE WEIGHT ([1]; OVX without E1, 30 μg): 17.7 ± 1.6 mg
VAGINAL WEIGHT ([1]; OVX without E1, 30 μg): 15.3 ± 2.0 mg
ALP [4]: 85 ± 6 IU
CHOLESTEROL (serum) [4]: 1.15 ± 0.05 mmol/L
TOTAL FAT [4]: 28.0 ± 1.8 %
reversal of the fat increase induced by estrogen deficiency [4]: 75%
LUMBAR SPINE BMD [4, 7]: 0.2252 ± 0.0058 g/cm^2
LUMBAR SPINE Prevention of Bone Loss [4, 7]: 49%
DISTAL FEMORAL METAPHYSIS (DFM) BMD [5]: 0.2929 ± 0.0042 g/cm^2
DISTAL FEMORAL METAPHYSIS (DFM) Prevention of Bone Loss [5]: 70%
PROXIMAL TIBIAL METAPHYSIS (PFM) BMD [5]: 0.2750 ± 0.0039 g/cm^2
PROXIMAL TIBIAL METAPHYSIS (PFM) Prevention of Bone Loss [5]: 71%
LUMBAR SPINE (L2-L4) BMD ([5]; SERMs 2.5 mg/kg, DHEA 80 mg/kg): 0.2162 ± 0.0035 g/cm^2
LUMBAR SPINE (L2-L4) Prevention of Bone Loss ([5]; SERMs 2.5 mg/kg, DHEA 80 mg/kg): 53%
IC50 ([2]; MCF7, MCF-7, Experiment 1): 3.68 nM
